Reference: article PMC12481569, “Novltex: A New Class of Antibiotics with Potent Activity against Multidrug-Resistant Bacterial Pathogens–Design, Synthesis, and Biological Evaluation” (Journal of Medicinal Chemistry, 2025)
Positions of bridges follow the written chain, without caps; N, C: chain ends. Non-standard residues stand in square brackets, D forms with d. Residues, ends and D or L forms follow the SMILES beside them. dCha = N[C@H](CC1CCCCC1)C(=O)O

Assays:
[1] = system: MDR clinical strains of S. aureus and E. faecium; format: cell-based, Staphylococcus aureus; Enterococcus faecium; details: range over 4 S. aureus and 3 E. faecium strains
Method: MICs were performed as previously reported 4. For MIC testing all peptides were dissolved in DMSO.
Bacterial cultures were grown overnight on Mueller-Hinton Agar (MHA) plates and adjusted to a final inoculum of 10^5 – 10^6 CFU/mL. 100 µl of ino culum in Meuller -Hinton broth (MHB) was mixed with equal volume of peptides (dissolved in MHB) at 2x their concentration in a 96 well plate . For daptomycin MIC determination, the same protocol was followed with the addition of 50 mg/L calcium chloride to the medium. MIC values were determined in the media contain ing polysorbate 80 (0.002%, v/v) to prevent non -specific adsorption of the peptides to plastic surfaces. The final peptides concentrations ranged from 0.0625 – 32 µg/mL. The 96 well plates were then incubated at 37 °C for 24 h. All the experiments were performed in two independent duplicates and the MIC was determined as the lowest concentration in which no visible growth was observed. […]

[2] = Lipid II binding, spot-on-lawn assays on S. aureus ATCC 33591; set-up: species or system Staphylococcus aureus; details: overnight 37 °C
Text: 6 Spot-on-lawn assays to evaluate binding of Lipid II with analogue 12 on S. aureus ATCC 33591. (A) Analogue 12 was premixed with increasing ratios of lipid II (0.5 to 4 equiv) and spotted onto a seeded lawn of S. aureus 33591. Lipid II and analogue 12 were also spotted independently. The position of the analogue 12–lipid II mixture is marked in red. (B) Daptomycin was used as a negative control. Asterisks denote the positions of analogue 12 (black), lipid II (blue), and daptomycin (green) additions.
Analogue 12 was premixed with increasing ratios of lipid II (0.5 to 4 equiv) for 10 min prior to spotting onto agar plates seeded with a lawn of S. aureus ATCC 33591 and incubated overnight.
XII. Lipid II binding determination of analogue 12
Previously reported methods were used to determine the lipid II binding of analogue 126,7. The lipid II used in this study was prepared by chemical synthesis and its preparation and purification has been […]
A: An overnight culture of S. aureus ATCC 33591 was added to LB agar (45 °C) at a final concentration of 0.1% (vol/vol) and pour-plated into 90 mm petri dishes. Binding of 12 to purified lipid II was assessed using a spot-on-lawn assay. Premixed solutions (5 µL) containing analogue 12 (8 µg) with varying concentration of lipid II were spotted onto the agar, alongside individual controls of 12 and lipid II.
After drying, plates were incubated overnight at 37 °C. This assay was performed in duplicates.
B: To assess the interaction between analogue 12 and lipid II, a culture of S. aureus ATCC 33591 was grown overnight in LB broth and inoculated into LB agar at a final concentration of 1% (v/v) at 45°C.
This mixture was evenly distributed into 90mm petri dishes. Antibiotic inhibition haloes were previously determined by spotting analogue 12 and daptomycin (5 μL,8 µg/mL) onto agar plates and measuring the diameter of the halo after overnight incubation at 37 °C . The binding affinity of analogue 12 and lipid II was later examined by applying purified lipid II (300 μM, 2 μL) to the edge of the antibiotic halo. Analogue 12 and Daptomycin were applied to the inoculated agar plate at a spaced distance, once the antimicrobial solution drops had dried, lipid II was spotted on the edge of the inhibition halo. The plates were then incubated overnight at 37 °C. […]

CC(C)C[C@@H]1NC(=O)[C@H](C)NC(=O)[C@H](NC(=O)[C@H](CO)NC(=O)[C@@H](CCCCN)NC(=O)[C@@H](CC2CCCCC2)NC(=O)[C@@H](N)Cc2ccccc2)[C@H](C)OC(=O)[C@H](CC(C)C)NC1=O [analogue 12, Leu2Cha–Novltex] (H-F[dCha][dK]S[dT]ALL; ester 5-C)
MIC against both groups of MDR clinical strains [1]: 0.063 to 0.5 µg/mL
zone of inhibition, spot-on-lawn ([2]; absence of lipid II, 8 µg spotted, duplicates): clear and substantial zone of inhibition
zone of inhibition, spot-on-lawn, premixed with lipid II ([2]; lipid II 1:1 ratio, premixed 10 min): antimicrobial activity was completely abolished
halo distortion on addition of lipid II ([2]; lipid II (300 μM, 2 μL) at the edge of the antibiotic halo, duplicates): formed a noncircular spot
zone of inhibition, spot-on-lawn, premixed with lipid II ([2]; lipid II ratio 0.5, premixed 10 min): only a faint zone remained
